According to article PMC10667535 (Nature Communications, 2023):

Target: T1, RSp0980 (Ralstonia pseudosolanacearum, UniProt Q8XR79)
T1 construct: gene narL
Assay: biochemical

T1 sequence (Q8XR79 1-222): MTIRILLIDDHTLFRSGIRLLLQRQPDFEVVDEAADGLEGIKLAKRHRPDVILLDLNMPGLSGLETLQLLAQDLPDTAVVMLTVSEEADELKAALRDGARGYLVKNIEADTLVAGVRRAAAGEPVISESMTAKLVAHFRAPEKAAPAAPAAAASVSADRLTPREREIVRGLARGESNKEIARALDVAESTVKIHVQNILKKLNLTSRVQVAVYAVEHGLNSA

For `Nc1nc2c(ncn2[C@@H]2O[C@@H]3COP(=O)(O)O[C@@H]4[C@H](O)[C@@H](COP(=O)(O)O[C@H]3[C@H]2O)O[C@H]4n2cnc3c(=O)[nH]c(N)nc32)c(=O)[nH]1` [2′,3′-c-di-GMP], the Kd was 126 ± 1.12 µM.
For `Nc1ncnc2c1ncn2[C@@H]1O[C@H](CO)[C@H]2OP(=O)(O)O[C@H]21` [2′,3′-cAMP], the Kd was 82 ± 0.93 µM.
For `Nc1nc2c(ncn2[C@@H]2O[C@@H]3CO[P@](=O)(O)O[C@H]4[C@@H](O)[C@H](n5cnc6c(=O)[nH]c(N)nc65)O[C@@H]4CO[P@](=O)(O)O[C@H]3[C@H]2O)c(=O)[nH]1` [bis-3′,5′-c-di-GMP], the Kd was 130.4 ± 1.3 µM.
